Results taken from patent US11981680B2, “Substituted thienopyrroles as PAD4 inhibitors” (BRISTOL-MYERS SQUIBB COMPANY, priority 2018, dated 2024).

Molecular target: human PAD4 (hPAD4) (Homo sapiens (Human), UniProt Q9UM07)
Assay: RFMS Human PAD4 Functional Assay
Type: biochemical
Details: rapid-fire mass spectrum (RFMS) assay; 5 nM hPAD4 enzyme, 250 μM BAEE, 30 min preincubation at 37° C.
Description: Compounds of the present invention were assayed as inhibitors of PAD4 using the assay protocol described below.
RFMS Human PAD4 Functional Assay:
Compounds were solubilized in 100% DMSO to achieve a10 mM compound concentration. Compound stock solutions were stored at RT. A series of dilutions were prepared in DMSO and mixed 8 times with 20 μL mixing volume. Final top concentration of compound in the assay is 50 μM. Final assay conditions were as follows: • Reaction volume: 26 μl • Assay buffer: 25 mM hepes, pH 7.5, 5 mM NaCl, 1 mM DTT, 0.2 mg/ml BSA, 0.01% CHAPS, 50 μM Calcium, and 5 μM TPEN • Final concentrations: 5 nM hPAD4 enzyme, 250 μM BAEE, and 0.5% DMSO • Total incubation time: 30 mins compound and enzyme preincubation at 37° C., 90 min enzyme/substrate reaction, 30 min reaction with phenyl glyoxal at 37° C. • Stop solution: 40 μl 5% TCA in ACN
0.13 μL of compound solution was added to 13 μL of 10 nM PAD4 in assay buffer. After 30 min 13 μl of 500 μM of BAEE was added in 25 mM hepes, pH 7.5, 5 mM NaCl, 1 mM DTT, 0.2 mg/ml BSA, 0.01% CHAPS, 50 μM Calcium, 5 μM TPEN was added and the reaction incubated for 90 min at 37° C. The enzymatic reaction was quenched by addition of 15 μl of 6.1N TCA, 100% Final Concentration is 20%, 35 μl of 8.5 mM phenyl glyoxal (final concentration 4 mM) is then added and the reaction is incubated for 30 min at 37° C.
After 30 minutes the plates are spun down to remove all precipitate. The enzyme reaction was quenched with an equal volume of methanol containing internal standard (modified citrulline). Samples were loaded onto the Rapid Fire RF300 system (Agilent) wherein they were first sipped for 1000 ms and then directly loaded to a C18 separations cartridge using a mixture of acetonitrile containing 0.01% formic acid for 3000 ms desalting. The flow rate of the mobile phase was 1.5 ml/min. Once the samples were eluted from the cartridge, a mobile phase of acetonitrile containing 0.01% formic acid was used to move the samples into the mass spectrometer for 4000 ms at a flow rate of 1.25 ml/min/Sciex API5500 triple quadrupole mass spectrometer (Applied Biosystems) equipped with ESI was used to analyze the peptidyl citrulline and internal standard ions.
MRM transition of product and internal standard were monitored at m/z 424.5 to 350.4 and m/z 293 to 247 respectively. The dwell time for each transition was set at 200 ms, and the ESI voltage was used at 5500 with a source temperature of 400° C. Extracted ion peaks for each transition were integrated using the Rapid Fire Integrator software. Peak area of analyte was normalized with internal standard.).

human PAD4 (hPAD4), sequence (Q9UM07 whole entry): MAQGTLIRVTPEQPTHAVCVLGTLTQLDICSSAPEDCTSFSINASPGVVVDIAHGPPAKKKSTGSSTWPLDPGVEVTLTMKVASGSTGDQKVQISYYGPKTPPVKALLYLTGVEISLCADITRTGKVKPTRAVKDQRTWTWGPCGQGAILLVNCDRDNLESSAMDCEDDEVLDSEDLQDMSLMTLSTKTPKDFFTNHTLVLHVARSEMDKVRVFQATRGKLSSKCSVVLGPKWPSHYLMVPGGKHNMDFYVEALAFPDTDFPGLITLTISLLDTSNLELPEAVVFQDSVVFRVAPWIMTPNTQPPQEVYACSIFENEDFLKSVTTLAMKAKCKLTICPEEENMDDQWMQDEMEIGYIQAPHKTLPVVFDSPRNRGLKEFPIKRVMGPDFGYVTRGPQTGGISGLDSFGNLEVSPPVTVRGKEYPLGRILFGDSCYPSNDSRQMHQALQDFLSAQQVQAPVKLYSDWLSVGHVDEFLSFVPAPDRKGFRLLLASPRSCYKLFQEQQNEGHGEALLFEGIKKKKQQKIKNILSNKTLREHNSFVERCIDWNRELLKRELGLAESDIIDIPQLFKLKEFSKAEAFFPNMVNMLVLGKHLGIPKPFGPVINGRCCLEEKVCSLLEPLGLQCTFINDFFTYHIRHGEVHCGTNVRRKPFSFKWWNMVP

Row | SMILES | IC50
1 | COc1cc(C(=O)N2C[C@H]3CC[C@@H]2[C@@H]3N)cc2nc(-c3cc4scc(C5CC6(CNC6)C5)c4n3CC3CC3)n(C)c12 [Example 20, ((1R,4R,7R)-7-amino-2-azabicyclo[2.2.1]heptan-2-yl)(2-(4-(cyclopropylmethyl)-3-(2-azaspiro[3.3]heptan-6-yl)-4H-thieno[3,2-b]pyrrol-5-yl)-7-methoxy-1-methyl-1H-benzo[d]imidazol-5-yl)methanone] | 0.036 µM
2 | COc1cc(C(=O)N2C[C@H]3CC[C@@H]2[C@@H]3N)cc2nc(-c3cc4scc(-c5ccncc5)c4n3CC3CC3)n(C)c12 [Example 47, ((1R,4R,7R)-7-amino-2-azabicyclo[2.2.1]heptan-2-yl)(2-(4-(cyclopropylmethyl)-3-(pyridin-4-yl)-4H-thieno[3,2-b]pyrrol-5-yl)-7-methoxy-1-methyl-1H-benzo[d]imidazol-5-yl)methanone] | 0.147 µM
3 | COc1cc(C(=O)N2C[C@H]3CC[C@@H]2[C@@H]3N)cc2nc(-c3cc4scc(-c5ccc(O)c(F)c5)c4n3CC3CC3)n(C)c12 [Example 36, ((1R,4R,7R)-7-amino-2-azabicyclo[2.2.1]heptan-2-yl)(2-(4-(cyclopropylmethyl)-3-(3-fluoro-4-hydroxyphenyl)-4H-thieno[3,2-b]pyrrol-5-yl)-7-methoxy-1-methyl-1H-benzo[d]imidazol-5-yl)methanone] | 0.059 µM
4 | COc1cc(C(=O)N2C[C@H]3CC[C@@H]2[C@@H]3N)cc2nc(-c3cc4scc(-c5cnc(C#N)nc5)c4n3CC3CC3)n(C)c12 [Example 41, 5-(5-(5-((1R,4R,7R)-7-amino-2-azabicyclo[2.2.1]heptane-2-carbonyl)-7-methoxy-1-methyl-1H-benzo[d]imidazol-2-yl)-4-(cyclopropylmethyl)-4H-thieno[3,2-b]pyrrol-3-yl)pyrimidine-2-carbonitrile] | 0.14 µM
5 | COc1cc(C(=O)N2C[C@H]3CC[C@@H]2[C@@H]3N)cc2nc(-c3cc4scc(C5CCCNC5)c4n3CC3CC3)n(C)c12 (single isomer, unassigned) [Example 17] | 0.079 µM
6 | COc1cc(C(=O)N2C[C@H]3CC[C@@H]2[C@@H]3N)cc2nc(-c3cc4scc(-c5cnn(C6CCOCC6)c5)c4n3CC3CC3)n(C)c12 [Example 48, ((1R,4R,7R)-7-amino-2-azabicyclo[2.2.1]heptan-2-yl)(2-(4-(cyclopropylmethyl)-3-(1-(tetrahydro-2H-pyran-4-yl)-1H-pyrazol-4-yl)-4H-thieno[3,2-b]pyrrol-5-yl)-7-methoxy-1-methyl-1H-benzo[d]imidazol-5-yl)methanone] | 0.029 µM
7 | COc1cc(C(=O)N2C[C@H]3CC[C@@H]2[C@@H]3N)cc2nc(-c3cc4scc(CC(CN)CCl)c4n3CC3CC3)n(C)c12 (stereo partly drawn) [Example 19, (2-(3-(3-amino-2-(chloromethyl)propyl)-4-(cyclopropylmethyl)-4H-thieno[3,2-b]pyrrol-5-yl)-7-methoxy-1-methyl-1H-benzo[d]imidazol-5-yl)((1R,4R,7R)-7-amino-2-azabicyclo[2.2.1]heptan-2-yl)methanone] | 0.07 µM
8 | COc1cc(C(=O)N2C[C@H]3CC[C@@H]2[C@@H]3N)cc2nc(-c3cc4scc(Nc5ccncc5)c4n3CC3CC3)n(C)c12 [Example 49, ((1R,4R,7R)-7-Amino-2-azabicyclo[2.2.1]heptan-2-yl)(2-(4-(cyclopropylmethyl)-3-(pyridin-4-ylamino)-4H-thieno[3,2-b]pyrrol-5-yl)-7-methoxy-1-methyl-1H-benzo[d]imidazol-5-yl)methanone] | 0.062 µM
9 | COc1cc(C(=O)N2C[C@H]3CC[C@@H]2[C@@H]3N)cc2nc(-c3cc4scc(-c5cnn(CC(F)(F)F)c5)c4n3CC3CC3)n(C)c12 [Example 42, ((1R,4R,7R)-7-amino-2-azabicyclo[2.2.1]heptan-2-yl)(2-(4-(cyclopropylmethyl)-3-(1-(2,2,2-trifluoroethyl)-1H-pyrazol-4-yl)-4H-thieno[3,2-b]pyrrol-5-yl)-7-methoxy-1-methyl-1H-benzo[d]imidazol-5-yl)methanone] | 0.059 µM
10 | COc1cc(C(=O)N2C[C@H]3CC[C@@H]2[C@@H]3N)cc2nc(-c3cc4scc(C5CCCNC5)c4n3CC3CC3)n(C)c12 (single isomer, unassigned) [Example 9] | 0.04 µM

Continued, values first:

Row | IC50 | SMILES
11 | 0.082 µM | COc1cc(C(=O)N2C[C@H]3CC[C@@H]2[C@@H]3N)cc2nc(-c3cc4scc(C5CC(O)C5)c4n3CC3CC3)n(C)c12 (single isomer, unassigned) [Example 22]
12 | 0.032 µM | COc1cc(C(=O)N2C[C@H]3CC[C@@H]2[C@@H]3N)cc2nc(-c3cc4scc(CCC(C)(C)O)c4n3CC3CC3)n(C)c12 [Example 6, ((1R,4R,7R)-7-amino-2-azabicyclo[2.2.1]heptan-2-yl)(2-(4-(cyclopropylmethyl)-3-(3-hydroxy-3-methylbutyl)-4H-thieno[3,2-b]pyrrol-5-yl)-7-methoxy-1-methyl-1H-benzo[d]imidazol-5-yl)methanone]
13 | 0.038 µM | COc1cc(C(=O)N2C[C@H]3CC[C@@H]2[C@@H]3N)cc2nc(-c3cc4scc(C5CC(O)C5)c4n3CC3CC3)n(C)c12 (single isomer, unassigned) [Example 21]
14 | 0.059 µM | COc1cc(C(=O)N2C[C@H]3CC[C@@H]2[C@@H]3N)cc2nc(-c3cc4scc(CCC#N)c4n3CC3CC3)n(C)c12 [Example 15, 3-(5-(5-((1R,4R,7R)-7-amino-2-azabicyclo[2.2.1]heptane-2-carbonyl)-7-methoxy-1-methyl-1H-benzo[d]imidazol-2-yl)-4-(cyclopropylmethyl)-4H-thieno[3,2-b]pyrrol-3-yl)propanenitrile]
15 | 0.084 µM | COc1cc(C(=O)N2C[C@H]3CC[C@@H]2[C@@H]3N)cc2nc(-c3cc4sccc4n3CC3CC3)n(C)c12 [Example 29, ((1R,4R,7R)-7-amino-2-azabicyclo[2.2.1]heptan-2-yl)(2-(4-(cyclopropylmethyl)-4H-thieno[3,2-b]pyrrol-5-yl)-7-methoxy-1-methyl-1H-benzo[d]imidazol-5-yl)methanone]
16 | 0.034 µM | COc1cc(C(=O)N2C[C@H]3CC[C@@H]2[C@@H]3N)cc2nc(-c3cc4scc(C5CC(O)C5)c4n3CC3CC3)n(C)c12 (mixture of isomers) [Example 7, cis/trans-((1R,4R,7R)-7-amino-2-azabicyclo[2.2.1]heptan-2-yl)(2-(4-(cyclopropylmethyl)-3-(3-hydroxycyclobutyl)-4H-thieno[3,2-b]pyrrol-5-yl)-7-methoxy-1-methyl-1H-benzo[d]imidazol-5-yl)methanone]
17 | 0.056 µM | COc1cc(C(=O)N2C[C@H]3CC[C@@H]2[C@@H]3N)cc2nc(-c3cc4scc(CCCO)c4n3CC3CC3)n(C)c12 [Example 14, ((1R,4R,7R)-7-amino-2-azabicyclo[2.2.1]heptan-2-yl)(2-(4-(cyclopropylmethyl)-3-(3-hydroxypropyl)-4H-thieno[3,2-b]pyrrol-5-yl)-7-methoxy-1-methyl-1H-benzo[d]imidazol-5-yl)methanone]
18 | 0.041 µM | COc1cc(C(=O)N2C[C@H]3CC[C@@H]2[C@@H]3N)cc2nc(-c3cc4sc(Br)cc4n3CC3CC3)n(C)c12 [Example 24, ((1R,4R,7R)-7-Amino-2-azabicyclo[2.2.1]heptan-2-yl)(2-(2-bromo-4-(cyclopropylmethyl)-4H-thieno[3,2-b]pyrrol-5-yl)-7-methoxy-1-methyl-1H-benzo[d]imidazol-5-yl)methanone]
19 | 0.062 µM | COc1cc(C(=O)N2C[C@H]3CC[C@@H]2[C@@H]3N)cc2nc(-c3cc4sc(C)cc4n3CC3CC3)n(C)c12 [Example 27, ((1R,4R,7R)-7-amino-2-azabicyclo[2.2.1]heptan-2-yl)(2-(4-(cyclopropylmethyl)-2-methyl-4H-thieno[3,2-b]pyrrol-5-yl)-7-methoxy-1-methyl-1H-benzo[d]imidazol-5-yl)methanone]
20 | 0.047 µM | COc1cc(C(=O)N2C[C@H]3CC[C@@H]2[C@@H]3N)cc2nc(-c3cc4scc(CCC(N)=O)c4n3CC3CC3)n(C)c12 [Example 11, 3-(5-(5-((1R,4R,7R)-7-amino-2-azabicyclo[2.2.1]heptane-2-carbonyl)-7-methoxy-1-methyl-1H-benzo[d]imidazol-2-yl)-4-(cyclopropylmethyl)-4H-thieno[3,2-b]pyrrol-3-yl)propanamide]
